# Key:
# [1] = safety and clinical outcomes in patients; format: in vivo, human
# [2] = Mixed Meal Tolerance Test (MMTT) in type 2 diabetes patients, clinical trial NCT04556760; format: in vivo, human; conditions: for MMTT-stimulated insulin secretion / glucagon secretion after MMTT: Cohort 1, Day 4
# Procedure: (§1) Patient population. In clinical trial NCT04556760, eligible patients were 18 to 75 years old. Eligible patients had diagnosis of type 2 diabetes mellitus for 6 months prior to screening, such as HbAlc in the diabetes range or fasting plasma glucose 126-220 mg/dL. Eligible patients were on stable metformin therapy for at least 4 weeks, where no significant dose change (increase or decrease≥500 mg/day) has occurred prior to screening and HbAlc 6%-9.5%, or on dual therapy with metformin in combination with SGLT2i or DPP4i and HbAlc 6%-8%. Participants on dual therapy required 2 weeks wash-out of SGLT2i or DPP4i.
# (§2) Study design. This was a randomized, double blind, multi-center, double dummy, and two-way cross-over study. The aim of the study was to compare the effect on glycaemic control and incretin response at equipotent doses of AZD9567 and prednisolone in diabetes patients. The AZD9567 and prednisolone doses were predicted to be equipotent, based on an ex vivo efficacy analysis from previous phase 1 studies. The study consisted of a total of three cohorts. Each cohort was treated for two 72-hour periods in a cross-over design, with a 3-week washout period between treatment periods as illustrated in FIG. 1. The total length of participant engagement (from screening to follow-up) is 79 days.
# (§3) Cohort 1 included 27 patients. The patents were randomized in a ratio of 1:1 to receive 72 mg/day (oral suspension) AZD9567 and 40 mg/day prednisolone over two 72 hour periods in a cross over design: 72 mg AZD9567 for 3 consecutive days of each treatment period followed by 40 mg prednisolone for 3 consecutive days of each treatment period [AB sequence group], or 40 mg prednisolone for 3 consecutive days of each treatment period followed by 72 mg AZD9567 for 3 consecutive days of each treatment period [BA sequence group].
# MMTT provides a fixed composition of protein, carbohydrates and fat, and is meant to mimic “normal” meal. It generally consists of 30.2 g protein, 19.6 g of fat, 75 g of carbohydrates with 6.6. g of fiber, totaling 612 kCal. It requires a standardized dinner the night before the test, 12 h fasting prior to the test, and standardized breakfast consumed (<30 min) at 7 AM (solid meal) consisting of pre-determined quantities of carbohydrates, proteins and fats. Sampling is done at −15, 10, 20, 30, 60, 75, 120, 180, and 240 min.
# The primary endpoint was change in glucose AUC (0-4 h) versus baseline compared to prednisolone following a standardized mixed meal tolerance test (MMTT) on Days −1, 4, 27, and 31. The change from baseline in glucose AUC (0-4 h) was analyzed using a mixed model repeated measures (MMRM) with baseline included as covariate. […]
# [3] = tested on: transcription of tyrosine aminotransferase (TAT); test: TAT transcription in human hepatocytes in vitro; format: cell-based; conditions: for upregulation of transcription of tyrosine aminotransferase (TAT): human hepatocytes in vitro
# [4] = tested on: hypothalamic-pituitary-adrenal (HPA) axis; test: morning serum cortisol and adrenocorticotropic hormone in type 2 diabetes patients; format: in vivo, human
# Procedure: as §2
# Cohort 1 included 27 patients. The patents were randomized in a ratio of 1:1 to receive 72 mg/day (oral suspension) AZD9567 and 40 mg/day prednisolone over two 72 hour periods in a cross over design: 72 mg AZD9567 for 3 consecutive days of each treatment period followed by 40 mg prednisolone for 3 consecutive days of each treatment period [AB sequence group], or 40 mg prednisolone for 3 consecutive days of each treatment period followed by 72 mg AZD9567 for 3 consecutive days of each treatment period [BA sequence group]. […]
# [5] = plasma pharmacokinetics in diabetic patients; format: in vivo, human; conditions: oral dosing
# Procedure: as §2, with “days. […]” for “days.”
# [6] = Continuous Glucose Monitoring (CGM) in type 2 diabetes patients, clinical trial NCT04556760; format: in vivo, human
# Procedure: as §1, §2, §3
# Cohort 2 included 8 patients. The patents were randomized in a ratio of 1:1 to receive 40 mg/day (oral suspension) AZD9567 and prednisolone over two 72 hour periods in a cross over design: 40 mg AZD9567 for 3 consecutive days of each treatment period followed by 20 mg prednisolone for 3 consecutive days of each treatment period [AB sequence group] or 20 mg prednisolone for 3 consecutive days of each treatment period followed by 40 mg AZD9567 for 3 consecutive days of each treatment period [BA sequence group].
# Cohort 3 included 9 patients. The patents were randomized in a ratio of 1:1 to receive placebo and 5 mg/day prednisolone over two 72 hour periods in a cross over design: placebo for 3 consecutive days of each treatment period followed by 5 mg prednisolone for 3 consecutive days of each treatment period [AB sequence group] or 5 mg prednisolone for 3 consecutive days of each treatment period followed by placebo for 3 consecutive days of each treatment period [BA sequence group]).
# CGM includes a normal diet and is reflective of daily glucose control under “real world” conditions. […]
# [7] = tested on: lipopolysaccharide (LPS)-stimulated tumour necrosis factor-α (TNFα) release; test: ex vivo inhibition of LPS-stimulated TNFα release in human whole blood; format: cell-based; conditions: compared with prednisolone
# joint inflammation = test: rat model of joint inflammation; format: in vivo; conditions: compared with prednisolone
structure (smiles),measurement,setting,value
"CC(C)[C@H](NC(=O)C(C)(F)F)[C@H](Oc1ccc2c(cnn2-c2ccc(=O)n(C)c2)c1)c1ccccc1 [AZD9567, 2,2-difluoro-N-[(1R,2S)-3-methyl-1-[1-(1-methyl-6-oxopyridin-3-yl)indazol-5-yl]oxy-1-phenylbutan-2-yl]propanamide]",safety concerns following the analysis of Cohort 1,"[1]; Cohort 1, 72 mg/day for 3 days",No significant new safety concerns
same,"rate of treatment intensification (dose increase of current oral antidiabetic therapy, or start/addition of insulin) as compared to prednisone",[1]; diagnosed diabetic patients,lower rate
same,incidence of hospitalization vs prednisone,[1]; heart failure patients,lower incidence
same,incidence of progression to type 2 diabetes mellitus as compared to prednisone,[1]; population predisposed to type 2 diabetes mellitus,lower incidence
same,difference in reduction of glucose AUC0-4h after MMTT (AZD9567 vs prednisolone),"[2]; Cohort 1, 24 h after last dose (Day 4), 95CI 0.01, 8.88, p=0.05",4.54%
same,MMTT-stimulated insulin secretion,[2],increased
same,glucagon secretion after MMTT,[2],unaffected
same,insulin:glucagon ratio,"[2]; Cohort 1, MMTT, vs prednisolone",marked improvement
same,absolute difference in reduction of glucose AUC0-4h after MMTT (AZD9567 vs prednisolone),"[2]; Cohort 1, 95% CI 9.40, 256.1, p=0.036",132.95 mmol·min/L
same,effect on prednisolone-induced upregulation of TAT transcription,[3]; coadministered with prednisolone in primary human hepatocytes,dose-dependently reduces
same,upregulation of transcription of tyrosine aminotransferase (TAT),[3],does not upregulate
same,adrenocorticotropic hormone (ACTH) concentrations,"[4]; Cohort 1, change from baseline",indicative of preserved hypothalamic-pituitary-adrenal (HPA) axis capacity
same,cortisol change during treatment,"[4]; Cohort 1, returning to baseline at follow-up","marked, target-related, reversible cortisol suppression"
same,elimination half-life in diabetic patients as compared to healthy volunteers in phase 1 study,[5],increased
same,systemic exposure in diabetic patients as compared to healthy volunteers in phase 1 study,[5],higher
same,increase in mean daily glucose relative to glycaemic targets for type 2 diabetes patients (70-180 mg/dl),"[6]; Cohort 1, 72 mg/day",within glycaemic targets
same,HbAlc difference corresponding to mean daily glucose difference between AZD9567 and prednisolone,"[6]; Cohort 1, 48-72 h, based on estimated Average Glucose (eAG) equation",0.7%
same,mean daily glucose increase as compared to prednisolone,[6]; Cohort 1: 72 mg/day AZD9567 vs 40 mg/day prednisolone,significantly lower
same,differentiation on glycaemic control versus prednisolone (CGM),"[6]; Cohort 1: 72 mg/day AZD9567 vs 40 mg/day prednisolone, 3 days",clear and consistent differentiation
same,HbAlc difference corresponding to mean daily glucose difference between AZD9567 and prednisolone,"[6]; Cohort 2, lower dose, based on eAG equation",0.4%
same,mean daily glucose increase as compared to prednisolone,[6]; Cohort 2: 40 mg/day AZD9567 vs 20 mg/day prednisolone,lower
same,differentiation on glycaemic control versus prednisolone (CGM),"[6]; Cohort 2: 40 mg/day AZD9567 vs 20 mg/day prednisolone, relative to Cohort 1",lower
same,observed difference in mean daily glucose (CGM) vs prednisolone,"[6]; at 48-72 hrs, Target Value 1.221 mmol/L, Lower Reference Value 0.599 mmol/L",1.507 mmol/L
same,inhibition of LPS-stimulated TNFα release,[7],similar
same,anti-inflammatory effects in vivo in a rat model of joint inflammation,joint inflammation,similar
"C[C@]12C=CC(=O)C=C1CC[C@@H]1[C@@H]2[C@@H](O)C[C@@]2(C)[C@H]1CC[C@]2(O)C(=O)CO [prednisolone, reference compound]",MMTT-stimulated insulin secretion,[2],lower
same,glucagon secretion after MMTT,[2],increased
same,upregulation of transcription of tyrosine aminotransferase (TAT),[3],upregulation
same,systemic exposure in diabetic patients as compared to healthy volunteers in phase 1 study,[5],higher
same,differentiation on glycaemic control vs placebo on CGM,[6]; Cohort 3: 5 mg/day prednisolone vs placebo,No differentiation
